Molecular target: T1, Sec residue in TrxR1 (Homo sapiens, UniProt Q16881)
T1 construct: purchased Abcam ab204206
T1 sequence (Q16881 1-499 isoform Q16881-5): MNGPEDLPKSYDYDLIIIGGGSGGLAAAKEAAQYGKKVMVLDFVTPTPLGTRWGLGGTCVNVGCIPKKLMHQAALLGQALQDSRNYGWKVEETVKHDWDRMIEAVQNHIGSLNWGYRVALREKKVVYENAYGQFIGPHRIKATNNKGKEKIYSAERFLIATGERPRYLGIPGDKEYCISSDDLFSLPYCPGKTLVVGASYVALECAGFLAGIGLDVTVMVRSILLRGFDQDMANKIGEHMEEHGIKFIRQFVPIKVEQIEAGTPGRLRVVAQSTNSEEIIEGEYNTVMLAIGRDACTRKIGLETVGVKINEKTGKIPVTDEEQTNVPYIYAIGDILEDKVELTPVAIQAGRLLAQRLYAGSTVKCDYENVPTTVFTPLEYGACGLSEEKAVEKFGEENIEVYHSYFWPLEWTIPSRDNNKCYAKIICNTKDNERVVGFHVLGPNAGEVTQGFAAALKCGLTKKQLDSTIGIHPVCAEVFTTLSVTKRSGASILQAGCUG
Assay: BIAM labeling assay
Assay type: biochemical
Conditions: pH 6.5; PepE 1, 5, 10 μM; DNCB 5 μM
Method: To further assess whether the Sec residue in TrxR1 was the modified site of PepE. The BIAM labeling assay was performed according to previous report. Briefly, 100 μM BIAM stock solution in 100 mM Tris-HCl, 1 mM EDTA buffer (pH = 6.5) was freshly prepared before each test. The TrxR1 protein (1 μM) was incubated with different concentrations (1, 5, 10 μM) of PepE or 5 μM of DNCB (positive control) and DMSO (negative control) in 50 mM Tris-HCl, 1 mM EDTA buffer (pH = 7.5) and 400 μM NADPH at 37 °C. After incubation, 4 μL of the reaction mixture was withdrawn and added mixed with 20 μM of BIAM solution in 100 mM Tris-HCl, 1 mM EDTA assay buffer (pH = 6.5) for 30 min at 37 °C to allow selective alkylation of free Sec residues. The reaction was stopped by adding the IAA solution (final concentration 50 mM). The samples were then denatured in SDS buffer, boiled and subjected to SDS-PAGE and western-blotting on a 7.5% gel, and the separated proteins were transferred to nitrocellulose membrane. The enzymes labeled with BIAM were detected with HRP-conjugated streptavidin and enhanced chemiluminescence detection. The bands were analyzed using Gel-pro 32 software.

C=C1C(=O)OC[C@H]1C(c1cc(OC)c2c(c1)OCO2)c1cc(OC)c2c(c1)OCO2 [PepE, Peperomin E]
BIAM alkylation of Sec residue of TrxR1: significantly block

Source: article PMC6434189, “Peperomin E and its orally bioavailable analog induce oxidative stress-mediated apoptosis of acute myeloid leukemia progenitor cells by targeting thioredoxin reductase” (Redox Biology, 2019)
